Assays:
Alopecurus myosuroides = assay: Pre-emergence herbicidal effect; type: in vivo; conditions: Dosage 320 g/ha, visual scoring after 3 weeks vs untreated controls, 100% = plants have died
Excerpt: (§1) 1. Pre-Emergence Herbicidal Effect and Crop Plant Compatibility Seeds of monocotyledonous or dicotyledonous weed plants or crop plants are planted in wood-fiber pots in sandy loam and covered with earth. The compounds according to the invention, formulated in the form of wettable powders (WP) or as emulsion concentrates (EC), are then applied as aqueous suspension or emulsion at a water application rate of 600 to 800 l/ha (converted) with the addition of 0.2% of wetting agent to the surface of the covering earth. The dosage of the compounds according to the invention is given in grams per hectare. Following the treatment, the pots are placed in a greenhouse and kept under good growth conditions for the test plants. The visual scoring of the damage on the test plants is carried out after an experiment time of 3 weeks in comparison with untreated controls (herbicidal effect in percent (%): 100% effect=plants have died, 0% effect=as control plants). The following abbreviations are used in the tables below: [table]

Amaranthus retroflexus [1] = assay: Pre-emergence herbicidal effect; type: in vivo; conditions: Dosage 320 g/ha, visual scoring after 3 weeks vs untreated controls, 100% = plants have died
Excerpt: as §1

Avena fatua = assay: Pre-emergence herbicidal effect; type: in vivo; conditions: Dosage 320 g/ha, visual scoring after 3 weeks vs untreated controls, 100% = plants have died
Excerpt: as §1

Lolium multiflorum [2] = assay: Pre-emergence herbicidal effect; type: in vivo; conditions: Dosage 320 g/ha, visual scoring after 3 weeks vs untreated controls, 100% = plants have died
Excerpt: as §1

Matricaria inodora = assay: Pre-emergence herbicidal effect; type: in vivo; conditions: Dosage 320 g/ha, visual scoring after 3 weeks vs untreated controls, 100% = plants have died
Excerpt: as §1

Polygonum convolvulus = assay: Pre-emergence herbicidal effect; type: in vivo; conditions: Dosage 320 g/ha, visual scoring after 3 weeks vs untreated controls, 100% = plants have died
Excerpt: as §1

Setaria viridis [3] = assay: Pre-emergence herbicidal effect; type: in vivo; conditions: Dosage 320 g/ha, visual scoring after 3 weeks vs untreated controls, 100% = plants have died
Excerpt: as §1

Stellaria media [4] = assay: Pre-emergence herbicidal effect; type: in vivo; conditions: Dosage 320 g/ha, visual scoring after 3 weeks vs untreated controls, 100% = plants have died
Excerpt: as §1

Veronica persica [5] = assay: Pre-emergence herbicidal effect; type: in vivo; conditions: Dosage 320 g/ha, visual scoring after 3 weeks vs untreated controls, 100% = plants have died
Excerpt: as §1

Viola tricolor [6] = assay: Pre-emergence herbicidal effect; type: in vivo; conditions: Dosage 320 g/ha, visual scoring after 3 weeks vs untreated controls, 100% = plants have died
Excerpt: as §1

Abutilon theophrasti = assay: Post-emergence herbicidal effect; type: in vivo; conditions: Dosage 320 g/ha, one-leaf stage, visual scoring after ca. 3 weeks vs untreated controls, 100% = plants have died
Description: (§2) The following abbreviations are used in the tables below: [table] 2. Post-Emergence Herbicidal Effect and Crop Plant Compatibility Seeds of monocotyledonous or dicotyledonous weed plants or crop plants are planted in wood-fiber pots in sandy loam, covered with earth and grown in a greenhouse under good growth conditions. 2 to 3 weeks after sowing, the test plants are treated in the one-leaf stage. The compounds according to the invention, formulated in the form of wettable powders (WP) or as emulsion concentrates (EC), are then sprayed onto the green plant parts as aqueous suspension or emulsion at a water application rate of 600 to 800 l/ha (converted) with the addition of 0.2% of wetting agent. The dosage of the compounds according to the invention is given in grams per hectare. After ca. 3 weeks' standing time of the test plants in the greenhouse under optimum growth conditions, the effect of the preparations is scored visually in comparison with untreated controls (herbicidal effect in percent (%): 100% effect=plants have died, 0% effect=as control plants).

Amaranthus retroflexus [7] = assay: Post-emergence herbicidal effect; type: in vivo; conditions: Dosage 320 g/ha, one-leaf stage, visual scoring after ca. 3 weeks vs untreated controls, 100% = plants have died
Description: as §2

Setaria viridis [8] = assay: Post-emergence herbicidal effect; type: in vivo; conditions: Dosage 320 g/ha, one-leaf stage, visual scoring after ca. 3 weeks vs untreated controls, 100% = plants have died
Description: as §2

Stellaria media [9] = assay: Post-emergence herbicidal effect; type: in vivo; conditions: Dosage 320 g/ha, one-leaf stage, visual scoring after ca. 3 weeks vs untreated controls, 100% = plants have died
Description: as §2

Veronica persica [10] = assay: Post-emergence herbicidal effect; type: in vivo; conditions: Dosage 320 g/ha, one-leaf stage, visual scoring after ca. 3 weeks vs untreated controls, 100% = plants have died
Description: as §2

Viola tricolor [11] = assay: Post-emergence herbicidal effect; type: in vivo; conditions: Dosage 320 g/ha, one-leaf stage, visual scoring after ca. 3 weeks vs untreated controls, 100% = plants have died
Description: as §2

[12] = logp (HCOOH), chemicophysical data; conditions: HCOOH
Echinochloa crus-galli [13] = assay: Pre-emergence herbicidal effect; type: in vivo; conditions: Dosage 320 g/ha, visual scoring after 3 weeks vs untreated controls, 100% = plants have died
Excerpt: as §1

PHBPU = assay: Post-emergence herbicidal effect; type: in vivo; conditions: Dosage 320 g/ha, one-leaf stage, visual scoring after ca. 3 weeks vs untreated controls, 100% = plants have died
Description: as §2, with “2.” for “The following abbreviations are used in the tables below: [table] 2.”

Echinochloa crus-galli [14] = assay: Post-emergence herbicidal effect; type: in vivo; conditions: Dosage 320 g/ha, one-leaf stage, visual scoring after ca. 3 weeks vs untreated controls, 100% = plants have died
Description: as §2

Lolium multiflorum [15] = assay: Post-emergence herbicidal effect; type: in vivo; conditions: Dosage 320 g/ha, one-leaf stage, visual scoring after ca. 3 weeks vs untreated controls, 100% = plants have died
Description: as §2

| Structure (SMILES) | Pre-emergence herbicidal effect ALOMY (Alopecurus myosuroides) | Pre-emergence herbicidal effect AMARE (Amaranthus retroflexus [1]) | Pre-emergence herbicidal effect LOLMU (Lolium multiflorum [2]) | Pre-emergence herbicidal effect MATIN (Matricaria inodora) | Pre-emergence herbicidal effect POLCO (Polygonum convolvulus) | Pre-emergence herbicidal effect SETVI (Setaria viridis [3]) | Pre-emergence herbicidal effect STEME (Stellaria media [4]) | Pre-emergence herbicidal effect VERPE (Veronica persica [5]) | Pre-emergence herbicidal effect VIOTR (Viola tricolor [6]) | Post-emergence herbicidal effect STEME (Stellaria media [9]) | Post-emergence herbicidal effect VERPE (Veronica persica [10]) | logp (HCOOH) [12] | Pre-emergence herbicidal effect ECHCG (Echinochloa crus-galli [13]) | also measured |
| --- | --- | --- | --- | --- | --- | --- | --- | --- | --- | --- | --- | --- | --- | --- |
| Cc1ccc2c(c1)[C@H](Nc1nc(C)c(I)c(N)n1)[C@@H](C)C2 [Example 1.46] | 80% | 100% | 100% | 100% | 100% | 100% | 100% | 100% | 100% | 90% | 90% | wax-like; logp (HCOOH): 1.39; 1H-NMR (CDCl3, 400 MHZ, δ in ppm): 1.25 (d, 3H, CH3); | – | Pre-emergence herbicidal effect AVEFA (Avena fatua): 80%; Post-emergence herbicidal effect ABUTH (Abutilon theophrasti): 100%; Post-emergence herbicidal effect AMARE (Amaranthus retroflexus [7]): 100%; Post-emergence herbicidal effect SETVI (Setaria viridis [8]): 90%; Post-emergence herbicidal effect VIOTR (Viola tricolor [11]): 90% |
| Cc1nc(NC2c3ccccc3CC2C)nc(N)c1[N+](=O)[O-] (racemic) [Example 1.125] | 80% | 90% | – | 95% | 90% | 90% | 100% | 100% | 100% | – | – | – | 90% | – |
| CC[C@H]1Cc2ccccc2[C@@H]1Nc1nc(C)c([N+](=O)[O-])c(N)n1 [Example 1.126] | – | 100% | – | 100% | 90% | 85% | 100% | 100% | 100% | 90% | 85% | – | 95% | Post-emergence herbicidal effect PHBPU (PHBPU): 80%; Post-emergence herbicidal effect ECHCG (Echinochloa crus-galli [14]): 80% |
| CCc1nc(N[C@H]2c3cc(C)ccc3C[C@@H]2C)nc(N)c1C#N [Example 1.61] | 100% | 100% | – | 90% | 100% | 90% | 100% | 100% | 100% | 90% | 90% | solid, m.p.: 126.9° C.; logp (HCOOH): 3.07; 1H-NMR (CDCl3, 400 MHZ, δ in ppm): 1.25 | 100% | Pre-emergence herbicidal effect AVEFA (Avena fatua): 90%; Post-emergence herbicidal effect ABUTH (Abutilon theophrasti): 80%; Post-emergence herbicidal effect ECHCG (Echinochloa crus-galli [14]): 90%; Post-emergence herbicidal effect VIOTR (Viola tricolor [11]): 80% |
| CCc1nc(N[C@@H]2CCCc3ccccc32)nc(N)c1C#N [Example 1.63] | 100% | 90% | – | 100% | 100% | 100% | 100% | 100% | 100% | 80% | 80% | wax-like; logp (HCOOH): 2.49; 1H-NMR (CDCl3, 400 MHZ, δ in ppm): 1.25 (t, 3H, CH3); | 100% | Pre-emergence herbicidal effect AVEFA (Avena fatua): 80%; Post-emergence herbicidal effect ECHCG (Echinochloa crus-galli [14]): 80%; Post-emergence herbicidal effect SETVI (Setaria viridis [8]): 80% |
| Cc1nc(N[C@@H]2CCc3ccccc32)nc(N)c1[N+](=O)[O-] [Example 1.123] | – | 100% | – | 100% | – | – | 100% | 100% | 100% | – | – | – | 80% | – |
| Cc1nc(NC2CCCc3ccccc32)nc(N)c1[N+](=O)[O-] (racemic) [Example 1.124] | – | 100% | – | 90% | 90% | 80% | 100% | 100% | 100% | – | – | – | – | – |
| Nc1cc(Cl)nc(N[C@@H]2CCCc3ccccc32)n1 [Example 1.76] | – | 90% | – | 100% | – | – | 100% | 100% | – | – | – | – | – | – |
| Cc1ccc2c(c1)[C@H](Nc1nc(N)c(C#N)c(C3(c4ccc(Cl)cc4Cl)CC3)n1)[C@@H](C)C2 [Example 1.94] | 80% | 90% | 80% | 85% | 80% | 90% | 100% | 100% | 100% | – | – | wax-like; logp (HCOOH): 5.55; 1H-NMR (CDCl3, 400 MHZ, δ in ppm): 1.25 (d, 3H, CH3); | 90% | Pre-emergence herbicidal effect AVEFA (Avena fatua): 80% |
| Nc1nc(N[C@@H]2CCCc3ccccc32)ncc1Br [Example 1.97] | 80% | 100% | 100% | 100% | – | 100% | 100% | 100% | 100% | 80% | 80% | – | 100% | Post-emergence herbicidal effect AMARE (Amaranthus retroflexus [7]): 80%; Post-emergence herbicidal effect ECHCG (Echinochloa crus-galli [14]): 80%; Post-emergence herbicidal effect LOLMU (Lolium multiflorum [15]): 80%; Post-emergence herbicidal effect SETVI (Setaria viridis [8]): 80% |
| Cc1ccc2c(c1)[C@H](Nc1ncc(C)c(N)n1)[C@@H](C)C2 [Example 1.51] | – | – | 100% | 100% | – | – | 100% | 100% | – | – | – | – | – | – |
| Cc1nc(NC2CCOc3ccccc32)nc(N)c1[N+](=O)[O-] (racemic) [Example 1.121] | 80% | 100% | 90% | 100% | 100% | 100% | 100% | 100% | 100% | – | – | – | 100% | – |
| CC(=O)c1cnc(N[C@H]2c3cc(C)ccc3C[C@@H]2C)nc1N [Example 1.184] | – | – | – | – | – | – | – | – | – | – | – | wax-like; logp (HCOOH): 1.58; 1H-NMR (CDCl3, 400 MHZ, δ in ppm): 1.30 (d, 3H, CH3); | – | – |
| Cc1ccc2c(c1)[C@H](Nc1nc(N)cc(-c3ccccc3)n1)[C@@H](C)C2 [Example 1.83] | – | – | – | – | – | – | – | – | – | – | – | wax-like; logp (HCOOH): 1.71; 1H-NMR (CDCl3, 400 MHZ, δ in ppm): 1.25 (m, 3H, CH3); | – | – |

Source: patent publication US8329717B2, “Pyrimidine derivatives and their use for controlling undesired plant growth” (Bayer Cropscience AG, priority 2008, dated 2012)
